Results: article PMC6751662, “Pharmacological and functional similarities of the human neuropeptide Y system in C. elegans challenges phylogenetic views on the FLP/NPR system” (Cell Communication and Signaling : CCS, 2019)

How the values were obtained:
Y2R = molecular target: T1, Y2R (Homo sapiens, UniProt P49146); assay: cAMP reporter gene assay, Gi/o, Y2R; assay type: cell-based; conditions: for cAMP assay (Gi/o), Y2R: 4 h, lower = higher Gi/o activity, transfected HEK293, CRE-luciferase, mean of >=3 independent experiments; for Gi (Gs) [x-fold of forskolin], Y2R, mean: inhibition of cAMP production induced by 1 µM forskolin (set to 1.00), transiently transfected HEK293 cells, mean of at least three independent experiments
T1 construct: expressed in transfected cells; host or cells: HEK293, transient
T1 sequence (P49146 1-381): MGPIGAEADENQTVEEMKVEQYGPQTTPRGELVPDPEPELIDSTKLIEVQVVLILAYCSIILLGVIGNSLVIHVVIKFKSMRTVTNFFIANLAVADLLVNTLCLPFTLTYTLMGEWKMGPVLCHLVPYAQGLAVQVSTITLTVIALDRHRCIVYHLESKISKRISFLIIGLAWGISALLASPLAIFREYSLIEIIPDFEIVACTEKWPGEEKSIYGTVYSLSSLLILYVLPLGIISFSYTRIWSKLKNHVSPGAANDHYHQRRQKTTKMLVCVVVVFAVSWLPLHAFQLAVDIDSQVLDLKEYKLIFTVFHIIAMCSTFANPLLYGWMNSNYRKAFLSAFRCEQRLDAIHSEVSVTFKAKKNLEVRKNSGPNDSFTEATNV
Method: (§1) Activation of Gs and Gi/o was assessed with a cAMP reporter gene assay. HEK293 cells grown to 70–80% confluency in 6-well plates were transiently co-transfected with vectors encoding the receptor and the cAMP reporter gene plasmid pGL4.29 [luc2P/CRE/Hygro] (Promega; 4 μg total, 1:1 ratio) using Metafectene Pro (3 μl/μg DNA; Biontex) following the manufacturer’s instructions. 16 h post transfection, the cells were seeded into white 384-well plates at a density of 20,000 cells/well. On the next day, the medium was removed and the cells were stimulated with 20 μl of peptide solution (or forskolin as positive control) in serum-free DMEM for 4 h. For measuring Gi/o activity, the peptide solutions additionally contained 1 μM forskolin to elevate cellular cAMP levels. After incubation, the luciferase substrate OneGlo in lysis buffer (Promega) was added and the luminescence was measured in a microplate reader Tecan Spark (Tecan). Data were analyzed with GraphPad Prism 5.03 and are shown as fold of basal or fold of forskolin in case of Gαi/o activity.
(§2) For in vitro activation, data is presented as mean ± SEM of at least three independent experiments conducted in technical triplicate. […] For the C. elegans NPRs, we considered the strongest response elicited by any of the peptides downstream of a particular receptor as the receptor’s maximal signal. This may or may not be the biological maximum that can be reached by the ‘true’ endogenous agonist. For the human receptors, the response to the established endogenous agonist reflected the maximal signal.

NPFF1R = molecular target: T2, NPFF1R (Homo sapiens, UniProt Q9GZQ6); assay: cAMP reporter gene assay, Gi/o, NPFF1R; assay type: cell-based; conditions: for cAMP assay (Gi/o), NPFF1R: 4 h, lower = higher Gi/o activity, transfected HEK293, CRE-luciferase, mean of >=3 independent experiments; for Gi (Gs) [x-fold of forskolin], NPFF1R, mean: inhibition of cAMP production induced by 1 µM forskolin (set to 1.00), transiently transfected HEK293 cells, mean of at least three independent experiments
T2 construct: expressed in transfected cells; host or cells: HEK293, transient
T2 sequence (Q9GZQ6 whole entry): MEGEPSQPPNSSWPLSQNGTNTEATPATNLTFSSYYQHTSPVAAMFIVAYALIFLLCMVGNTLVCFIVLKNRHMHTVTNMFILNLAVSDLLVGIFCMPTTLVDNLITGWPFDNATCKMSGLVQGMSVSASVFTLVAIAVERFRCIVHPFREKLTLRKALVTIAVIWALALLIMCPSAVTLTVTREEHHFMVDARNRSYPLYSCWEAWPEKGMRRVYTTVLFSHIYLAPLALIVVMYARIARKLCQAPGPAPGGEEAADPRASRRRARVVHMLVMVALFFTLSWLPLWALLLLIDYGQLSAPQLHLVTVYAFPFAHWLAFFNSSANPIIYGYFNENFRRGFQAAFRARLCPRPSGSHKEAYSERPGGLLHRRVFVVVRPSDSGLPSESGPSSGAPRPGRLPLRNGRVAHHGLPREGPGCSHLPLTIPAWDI
Method: as §1, §2

Y5R = molecular target: T3, Y5R (Homo sapiens, UniProt Q15761); assay: cAMP reporter gene assay, Gi/o, Y5R; assay type: cell-based; conditions: for cAMP assay (Gi/o), Y5R: 4 h, lower = higher Gi/o activity, transfected HEK293, CRE-luciferase, mean of >=3 independent experiments; for Gi (Gs) [x-fold of forskolin], Y5R, mean: inhibition of cAMP production induced by 1 µM forskolin (set to 1.00), transiently transfected HEK293 cells, mean of at least three independent experiments
T3 construct: expressed in transfected cells; host or cells: HEK293, transient
T3 sequence (Q15761 1-445): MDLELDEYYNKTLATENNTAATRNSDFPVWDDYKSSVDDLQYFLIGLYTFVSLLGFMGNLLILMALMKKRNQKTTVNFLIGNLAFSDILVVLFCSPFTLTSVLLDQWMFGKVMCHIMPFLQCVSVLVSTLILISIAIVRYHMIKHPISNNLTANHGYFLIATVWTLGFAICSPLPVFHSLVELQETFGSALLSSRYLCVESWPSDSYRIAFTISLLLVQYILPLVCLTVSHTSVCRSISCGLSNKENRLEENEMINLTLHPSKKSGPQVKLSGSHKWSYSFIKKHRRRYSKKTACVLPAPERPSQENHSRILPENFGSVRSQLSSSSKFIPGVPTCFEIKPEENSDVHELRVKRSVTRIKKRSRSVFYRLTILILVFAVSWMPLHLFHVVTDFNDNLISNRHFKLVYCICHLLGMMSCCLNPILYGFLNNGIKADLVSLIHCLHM
Method: as §1, §2

NPR-1 = molecular target: T4, NPR-1 (Caenorhabditis elegans, UniProt Q18534); assay: IP accumulation assay, chimeric GαΔ6qi4myr, NPR-1; assay type: cell-based, C. elegans; parameters: expressed in transfected cells; host or cells: HEK293; conditions: 1 h, HBSS + 20 mM LiCl, HEK293 receptor + GαΔ6qi4myr, HTRF IP-One
T4 sequence (Q18534 1-457): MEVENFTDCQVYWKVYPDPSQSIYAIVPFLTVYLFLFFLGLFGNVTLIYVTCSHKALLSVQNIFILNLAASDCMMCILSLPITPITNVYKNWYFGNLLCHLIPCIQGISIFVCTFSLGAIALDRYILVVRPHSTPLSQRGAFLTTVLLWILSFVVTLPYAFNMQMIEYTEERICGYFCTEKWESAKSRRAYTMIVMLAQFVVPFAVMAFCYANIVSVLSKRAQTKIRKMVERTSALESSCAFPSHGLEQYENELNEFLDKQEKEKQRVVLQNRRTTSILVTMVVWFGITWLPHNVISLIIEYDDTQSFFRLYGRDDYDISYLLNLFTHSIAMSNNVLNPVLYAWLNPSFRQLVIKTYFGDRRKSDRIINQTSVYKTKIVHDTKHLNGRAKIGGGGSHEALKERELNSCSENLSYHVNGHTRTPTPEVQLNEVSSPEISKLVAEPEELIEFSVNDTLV
Method: (§3) For measuring IP accumulation, HEK293 cells grown to 70–80% confluency in 6-well plates were transiently co-transfected using Metafectene Pro (2.5 μl/μg DNA; Biontex) with plasmids containing receptor and/or mock (empty pcDNA3.1) (for endogenous Gq-coupling) using 4 μg total DNA in a ratio of 3:1 following the manufacturer’s instructions. For testing Gα16- and GαΔ6qi4myr-coupling, plasmids encoding the corresponding Gα protein were co-transfected instead of mock. Gα16 is naturally promiscuous and stimulates the phospholipase C (PLC) pathway leading to IP production, while the exchange of the C-terminal four amino acids of Gαq for the corresponding residues of Gαi1 in the chimeric GαΔ6qi4myr confers the ability to couple to Gi/o protein-preferring receptors but still stimulate PLC, thus specifically redirecting downstream cellular signaling. 16 h post transfection, the cells were seeded into white 384-well plates at a density of 20,000 cells/well. Media was removed 24 h later and the cells were incubated with the indicated concentration of peptides for 1 h in HBSS + 20 mM LiCl. IP accumulation was measured with the HTRF-based IP-One Gq kit (Cisbio) on a microplate reader (Tecan Spark).
as §2

NPR-6 = assay: IP accumulation assay, chimeric GαΔ6qi4myr, NPR-6; assay type: cell-based, C. elegans; conditions: 1 h, HBSS + 20 mM LiCl, HEK293 receptor + GαΔ6qi4myr, HTRF IP-One
Method: as §3, §2

[1] = 0.1 µM peptide + 1 µM forskolin (set to 1.00)
[2] = 10 µM peptide + 1 µM forskolin (set to 1.00)
[3] = 0.1 µM peptide (Table S8), mean of >=3 independent experiments
[4] = 10 µM peptide, mean of >=3 independent experiments (Tables S5 and S8)
[5] = 0.1 nM peptide (Table S5), mean of >=3 independent experiments

## APLEGFEDMSGFLRTIDGIQKPRF-NH2 [FLP-33, NPY-like C. elegans FLP with C-terminal RxRF/Ya signature]
Y2R; [1]
  cAMP assay (Gi/o), Y2R: 0.89 x-fold of forskolin
Y2R; [2]
  cAMP assay (Gi/o), Y2R: 0.76 x-fold of forskolin
NPFF1R; [1]
  cAMP assay (Gi/o), NPFF1R: 0.81 x-fold of forskolin
NPFF1R; [2]
  cAMP assay (Gi/o), NPFF1R: 0.47 x-fold of forskolin
Y5R; [1]
  cAMP assay (Gi/o), Y5R: 0.94 x-fold of forskolin
Y5R; [2]
  cAMP assay (Gi/o), Y5R: 0.99 x-fold of forskolin

## RGPSGPLAF-NH2 [[R8A]FLP-15-2]
Y2R; 0.1 µM peptide
  Gi (Gs) [x-fold of forskolin], Y2R, mean: 0.86 x-fold of forskolin
Y2R; 10 µM peptide
  Gi (Gs) [x-fold of forskolin], Y2R, mean: 1.05 x-fold of forskolin
NPFF1R; 0.1 µM peptide
  Gi (Gs) [x-fold of forskolin], NPFF1R, mean: 0.91 x-fold of forskolin
NPFF1R; 10 µM peptide
  Gi (Gs) [x-fold of forskolin], NPFF1R, mean: 0.71 x-fold of forskolin
Y5R; 0.1 µM peptide
  Gi (Gs) [x-fold of forskolin], Y5R, mean: 0.89 x-fold of forskolin
Y5R; 10 µM peptide
  Gi (Gs) [x-fold of forskolin], Y5R, mean: 0.91 x-fold of forskolin

## NPENDTPFGTMRF-NH2 [FLP-3-4, C. elegans FMRFamide-like peptide, C-terminally amidated, synthesized by SPPS]
NPR-1; [3]
  IP accumulation with GαΔ6qi4myr, NPR-1: 0.98 x-fold of basal
NPR-1; [4]
  IP accumulation with GαΔ6qi4myr, NPR-1: 0.94 x-fold of basal
NPR-6; [3]
  IP accumulation with GαΔ6qi4myr, NPR-6: 1.04 x-fold of basal
NPR-6; [4]
  IP accumulation with GαΔ6qi4myr, NPR-6: 5.43 x-fold of basal

## AGSDPNFLRF-NH2 [FLP-1-2, C. elegans FMRFamide-like peptide, C-terminally amidated, synthesized by SPPS]
NPR-1; [3]
  IP accumulation with GαΔ6qi4myr, NPR-1: 1.03 x-fold of basal
NPR-1; [4]
  IP accumulation with GαΔ6qi4myr, NPR-1: 0.98 x-fold of basal
NPR-6; [3]
  IP accumulation with GαΔ6qi4myr, NPR-6: 1.14 x-fold of basal
NPR-6; [4]
  IP accumulation with GαΔ6qi4myr, NPR-6: 5.19 x-fold of basal

## GLGPRPLAF-NH2 [[R8A]FLP-21, R8A control peptide of FLP-21, penultimate arginine exchanged for an alanine]
Y2R; 0.1 µM peptide
  Gi (Gs) [x-fold of forskolin], Y2R, mean: 0.88 x-fold of forskolin
Y2R; 10 µM peptide
  Gi (Gs) [x-fold of forskolin], Y2R, mean: 0.81 x-fold of forskolin
NPFF1R; 0.1 µM peptide
  Gi (Gs) [x-fold of forskolin], NPFF1R, mean: 1.03 x-fold of forskolin
NPFF1R; 10 µM peptide
  Gi (Gs) [x-fold of forskolin], NPFF1R, mean: 0.66 x-fold of forskolin
Y5R; 0.1 µM peptide
  Gi (Gs) [x-fold of forskolin], Y5R, mean: 0.84 x-fold of forskolin
Y5R; 10 µM peptide
  Gi (Gs) [x-fold of forskolin], Y5R, mean: 0.87 x-fold of forskolin

## EASAFGDIIGELKGKGLGGRMRF-NH2 [FLP-27, NPY-like C. elegans FLP with C-terminal RxRF/Ya signature]
Y2R; [1]
  cAMP assay (Gi/o), Y2R: 0.80 x-fold of forskolin
Y2R; [2]
  cAMP assay (Gi/o), Y2R: 0.17 x-fold of forskolin
NPFF1R; [1]
  cAMP assay (Gi/o), NPFF1R: 0.76 x-fold of forskolin
NPFF1R; [2]
  cAMP assay (Gi/o), NPFF1R: 0.26 x-fold of forskolin
Y5R; [1]
  cAMP assay (Gi/o), Y5R: 1.07 x-fold of forskolin
Y5R; [2]
  cAMP assay (Gi/o), Y5R: 0.96 x-fold of forskolin

## ASPSFIRF-NH2 [FLP-4-2, C. elegans FMRFamide-like peptide, C-terminally amidated, synthesized by SPPS]
NPR-1; [3]
  IP accumulation with GαΔ6qi4myr, NPR-1: 0.83 x-fold of basal
NPR-1; [4]
  IP accumulation with GαΔ6qi4myr, NPR-1: 0.89 x-fold of basal
NPR-6; [3]
  IP accumulation with GαΔ6qi4myr, NPR-6: 0.96 x-fold of basal
NPR-6; [4]
  IP accumulation with GαΔ6qi4myr, NPR-6: 1.19 x-fold of basal

## APKPKFIRF-NH2 [FLP-5-1, C. elegans FMRFamide-like peptide, C-terminally amidated, synthesized by SPPS]
NPR-1; [5]
  IP assay endog. Gαq + GαΔ6qi4myr, NPR-1: 0.88 x-fold of basal
NPR-1; [3]
  IP accumulation with GαΔ6qi4myr, NPR-1: 0.88 x-fold of basal
NPR-1; [4]
  IP accumulation with GαΔ6qi4myr, NPR-1: 0.93 x-fold of basal
NPR-6; [5]
  IP assay endog. Gαq + GαΔ6qi4myr, NPR-6: 0.96 x-fold of basal
NPR-6; [3]
  IP accumulation with GαΔ6qi4myr, NPR-6: 0.96 x-fold of basal
NPR-6; [4]
  IP accumulation with GαΔ6qi4myr, NPR-6: 0.98 x-fold of basal
